# Measurements from US7709526B2, “Use of cyclolignans and new cyclolignans” (Biovitrum AB, priority 2001, dated 2010).
# Read-outs that look alike come from different tables or passages of the source.
# Legend:
# FM55 melanoma cells = test: Cell viability (XTT), FM55; type: cell-based, human; conditions: Homo sapiens
# Experimental: (§1) Cell proliferation kit II (Roche Inc.) is based on calorimetric change of the yellow tetrazolium salt XTT in orange formazan dye by the respiratory chain of viable cells (Roehm, N W, et al., J Immunol Methods 142:257-265, 1991). Cells seeded at a concentration of 5000/well in 100 μl medium in a 96-well plate were treated with different drugs in the given concentration. After 24 or 48 h the cells were incubated, according to the manufacturer's protocol, with XTT labelling mixture. After 4 h the formazan dye is quantified using a scanning multiwell spectrophotometer with a 495-nm filter. The absorbance is directly correlated with number of viable cells. The standard absorbance curve was drawn by means of untreated cells seeded at a concentration of from 1000 to 10 000 cells/well with an increasing rate of 1000 cells/well. All standards and experiments were performed in triplicates.
# (§2) 5 different types of cell lines were seeded in 96-well plates (medium volume in a well was 100 μl), at a concentration of 10,000 cells/cm^2 in Minimal Essential Medium supplemented with fetal calf serum. When the cells had reached a concentration of 65,000 cells/cm^2, they were treated with different doses of podophyllotoxin and deoxypodophyllotoxin for 48 h. Cell viability was then assayed (see above). IC50 values for each inhibitor and cell line, calculated as the concentration, resulting in a 50% decrease in cell survival, are shown below. The results are based on 4 different experiments.
# FM55 melanoma cells were cultured in the same way as described in Experiment 3 and were treated with different doses of podophyllotoxin analogues as described in Experiment 3.
# rats = conditions: cited from earlier work
# [1] = tested on: HL60/Nov acute myeloid leukemia cells (cytostatic-resistant); test: Viability of leukemia cells, HL60/Nov; type: cell-based, human; conditions: Homo sapiens, HL-60, 72 h, read-out: IC50 for viability of leukemia cell lines
# Experimental: (§3) The human chronic myeloid leukemia K562/S and K562/Vcr30 lines and the acute myeloid leukemia cell lines HL60/0 and HL60/Nov were obtained from ATCC. The K562/S and HL60/0 are wild type (non-resistant) cells, whereas K562/Vcr30 and HL60/Nov are cytostatic-resistant sublines. All leukemia cell lines were cultured in RPMI 1640 medium supplemented with 10% fetal bovine serum and with 2 mM glutamine, 1% benzyl-penicillin and streptomycin. The cells were grown in tissue culture flasks maintained at 95% air/5% CO2 atmosphere at 37° C. in a humidified incubator. For the experiments 25,000 cells were cultured in 60-mm plastic dishes or 96-well plastic plates. The experiments on leukemia cells were performed in collaboration with Associate professor Sigurd Vitols, Department of Pharmacology, Karolinska Hospital (Stockholm, Sweden).
# as §1
# (§4) The leukemia cell lines K562/S, K562/Vcr 30, HL60/0 and HL60/Nov were proven to express the IGF-1R. This was assayed by Western blotting analysis, as described in Methods and Experiment 1 and 2. The 4 leukemia cell lines were seeded in 96-well plates (medium volume in a well was 100 μl), in RPMI40 medium supplemented with fetal calf serum. After 24 h podophyllotoxin, deoxypodophyllotoxin and other derivatives were added at different concentrations for 72 h. Cell viability was then assayed (see above). IC50 values for each inhibitor and cell lines are shown below (Table 5). The results are based on 3 different experiments.
# BE melanoma cells = test: Cell viability (XTT), BE; type: cell-based; conditions: Homo sapiens, 48 h
# Experimental: as §1
# as §2, with “IC50 values for each inhibitor and cell line, calculated as the concentration, resulting in a 50% decrease in cell survival, are shown below. The results are based on 4 different experiments.” left out
# [2] = tested on: HL60 acute myeloid leukemia cells; test: Viability of leukemia cells, HL60; type: cell-based, human; conditions: Homo sapiens, HL-60; HL60, 72 h; read-out: IC50 for viability of leukemia cell lines
# Experimental: as §3, §1, §4
# microtubules = conditions: cell free systems; cited from earlier work
# [3] = molecular target: receptor of epidermal growth factor (Homo sapiens, UniProt P00533); test: Tyrosine phosphorylation of epidermal growth factor receptor; type: cell-based
# Water solubility = type: physicochemical
# [4] = tested on: PC-3 prostate cancer cells; test: Cell viability (XTT), PC-3; type: cell-based; conditions: Homo sapiens, 48 h
# Experimental: as §1
# as §2, with “IC50 values for each inhibitor and cell line, calculated as the concentration, resulting in a 50% decrease in cell survival, are shown below. The results are based on 4 different experiments.” left out
# malignant cells = test: Cell death in malignant cells; type: cell-based
# [5] = tested on: receptor of fibroblast growth factor; test: Tyrosine phosphorylation of fibroblast growth factor receptor; type: cell-based
# [6] = molecular target: insulin receptor tyrosine kinase (Homo sapiens, UniProt P06213); test: Interference with insulin receptor tyrosine kinase; type: cell-based
# [7] = tested on: receptor of platelet-derived growth factor; test: Tyrosine phosphorylation of platelet-derived growth factor receptor; type: cell-based
# insulin receptor tyrosine kinase, sequence (P06213 28-1382): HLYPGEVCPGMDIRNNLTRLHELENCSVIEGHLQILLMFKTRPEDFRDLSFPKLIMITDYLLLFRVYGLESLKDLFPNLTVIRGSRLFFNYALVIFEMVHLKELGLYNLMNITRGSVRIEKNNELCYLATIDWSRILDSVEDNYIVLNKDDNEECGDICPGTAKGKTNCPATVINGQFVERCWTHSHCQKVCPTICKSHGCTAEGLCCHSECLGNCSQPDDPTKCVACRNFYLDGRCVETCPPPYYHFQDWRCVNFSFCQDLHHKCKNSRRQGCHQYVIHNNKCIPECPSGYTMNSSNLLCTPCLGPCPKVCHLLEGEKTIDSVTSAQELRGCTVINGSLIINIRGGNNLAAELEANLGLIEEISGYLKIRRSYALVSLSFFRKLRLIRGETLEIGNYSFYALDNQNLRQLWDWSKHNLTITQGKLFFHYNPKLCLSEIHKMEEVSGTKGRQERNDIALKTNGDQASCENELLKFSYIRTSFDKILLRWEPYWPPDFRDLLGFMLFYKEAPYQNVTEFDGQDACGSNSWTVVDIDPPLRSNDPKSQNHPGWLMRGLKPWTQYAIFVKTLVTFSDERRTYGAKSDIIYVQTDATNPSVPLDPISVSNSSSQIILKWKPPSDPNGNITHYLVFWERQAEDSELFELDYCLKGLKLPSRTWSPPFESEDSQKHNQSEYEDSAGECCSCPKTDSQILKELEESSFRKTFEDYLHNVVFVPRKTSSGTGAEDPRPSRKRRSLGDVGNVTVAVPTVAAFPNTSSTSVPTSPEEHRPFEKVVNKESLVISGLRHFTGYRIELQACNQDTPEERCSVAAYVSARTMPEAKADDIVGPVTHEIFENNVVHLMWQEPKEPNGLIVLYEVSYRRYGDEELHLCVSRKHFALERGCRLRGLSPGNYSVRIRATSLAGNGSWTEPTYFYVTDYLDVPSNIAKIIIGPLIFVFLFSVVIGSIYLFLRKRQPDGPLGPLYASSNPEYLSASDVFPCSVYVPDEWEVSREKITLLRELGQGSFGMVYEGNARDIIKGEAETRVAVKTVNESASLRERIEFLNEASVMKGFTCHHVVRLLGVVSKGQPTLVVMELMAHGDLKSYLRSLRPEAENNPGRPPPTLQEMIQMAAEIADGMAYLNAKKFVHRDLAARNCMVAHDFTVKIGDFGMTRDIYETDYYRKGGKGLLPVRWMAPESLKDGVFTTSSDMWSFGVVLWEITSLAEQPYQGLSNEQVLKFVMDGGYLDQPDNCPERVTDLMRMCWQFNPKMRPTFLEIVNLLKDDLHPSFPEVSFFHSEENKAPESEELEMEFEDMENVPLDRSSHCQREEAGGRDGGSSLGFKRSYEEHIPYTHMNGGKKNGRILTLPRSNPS
# receptor of epidermal growth factor, sequence (P00533 25-1210): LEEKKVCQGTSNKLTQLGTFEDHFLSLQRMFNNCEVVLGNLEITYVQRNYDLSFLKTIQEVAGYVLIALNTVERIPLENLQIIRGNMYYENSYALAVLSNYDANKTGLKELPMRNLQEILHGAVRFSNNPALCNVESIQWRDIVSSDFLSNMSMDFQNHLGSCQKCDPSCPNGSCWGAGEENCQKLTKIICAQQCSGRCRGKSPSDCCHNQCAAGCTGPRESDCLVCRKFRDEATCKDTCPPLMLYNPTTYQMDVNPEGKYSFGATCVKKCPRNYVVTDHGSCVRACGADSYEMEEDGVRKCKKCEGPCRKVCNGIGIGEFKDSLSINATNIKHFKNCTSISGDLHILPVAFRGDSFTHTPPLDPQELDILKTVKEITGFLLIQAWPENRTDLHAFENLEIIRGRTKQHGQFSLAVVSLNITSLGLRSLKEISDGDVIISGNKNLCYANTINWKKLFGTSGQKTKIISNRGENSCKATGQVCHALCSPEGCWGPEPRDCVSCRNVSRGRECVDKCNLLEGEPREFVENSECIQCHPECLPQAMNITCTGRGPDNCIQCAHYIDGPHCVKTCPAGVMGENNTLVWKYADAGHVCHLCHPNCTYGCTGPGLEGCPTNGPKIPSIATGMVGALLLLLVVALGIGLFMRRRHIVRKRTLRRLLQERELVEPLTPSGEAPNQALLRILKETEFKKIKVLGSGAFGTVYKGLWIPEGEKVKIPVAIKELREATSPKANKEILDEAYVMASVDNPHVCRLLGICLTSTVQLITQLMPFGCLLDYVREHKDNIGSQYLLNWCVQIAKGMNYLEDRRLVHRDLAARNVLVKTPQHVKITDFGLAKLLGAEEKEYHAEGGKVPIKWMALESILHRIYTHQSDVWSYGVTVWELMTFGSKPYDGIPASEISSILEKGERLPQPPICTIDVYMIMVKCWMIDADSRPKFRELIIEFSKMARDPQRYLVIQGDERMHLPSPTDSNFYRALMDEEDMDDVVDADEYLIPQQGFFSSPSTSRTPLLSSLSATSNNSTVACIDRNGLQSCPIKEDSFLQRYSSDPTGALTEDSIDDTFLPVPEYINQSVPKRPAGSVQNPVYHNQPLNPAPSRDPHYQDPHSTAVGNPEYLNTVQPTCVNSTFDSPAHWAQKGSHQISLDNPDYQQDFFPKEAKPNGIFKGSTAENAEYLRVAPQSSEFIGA
smiles,measurement,setting,value
"COc1cc([C@@H]2c3cc4c(cc3[C@H](O)[C@H]3COC(=O)[C@H]23)OCO4)cc(OC)c1OC [Podophyllotoxin, podophyllotoxin]",IC50,"FM55 melanoma cells; FM55, Experiment 4 (Table 4), read-out: IC50 for viability of FM55 cells",50 nM
same,IC50,"FM55 melanoma cells; FM55, melanoma, 48 h (Table 3), read-out: IC50 for cell viability",40 nM
same,LD50 in rats,rats,14 mg/kg
same,IC50,[1],2 nM
same,IC50,BE melanoma cells,50 nM
same,IC50,[2],3 nM
same,effect on microtubules,microtubules,required μM concentrations
same,interference with tyrosine phosphorylation of the receptor of epidermal growth factor,[3],Neither do they interfere
same,water solubility,Water solubility,100 to 200 µM
same,IC50,[4],60 nM
same,cell death in malignant cells (in words),malignant cells,extensive cell death
same,interference with tyrosine phosphorylation of the receptor of fibroblast growth factor,[5],Neither do they interfere
same,interference with the insulin receptor tyrosine kinase,[6],do not interfere
same,interference with tyrosine phosphorylation of the receptor of platelet-derived growth factor,[7],Neither do they interfere
